Experimental data reported in patent US12285459B2, “Saposin-A derived peptides and uses thereof” (CHILDREN'S MEDICAL CENTER CORPORATION, priority 2011, dated 2025).

Test system: PC3M-LN4 prostate cancer cells
Assay: Orthotopic PC3M-LN4 prostate tumor model
Assay type: in vivo, SCID mice
Conditions: 30 mg/kg/day i.p. from day 26 for 16 days; PBS control
Description: C57Bl6 SCID mice were injected with 1×10^6 PC3M-LN4 prostate cancer cells in the prostate gland as described previously (Kang et al). After 26 days the animals were treated with either PBS or peptides corresponding to residues 36-40 or 36-39 of saposin A at a dose of 30 mg/kg/day via intraperitoneal (i.p.) injection. After 16 days of treatment all animals were sacrificed, prostate tumors were weighed and harvested, along with the lungs of animals. Tissues were either fixed in NBF, or lysed and analyzed for Tsp-1 and p53 expression by western blot analysis.
The peptides were then tested for their ability to inhibit tumor growth and metastasis in three models, the PC3M-LN4 prostate cancer model, the B16-B6 melanoma model and the Lewis Lung Carcinoma (LLC) model. 1×10^6 PC3M-LN4 cells were first injected into the prostate gland of SCID mice. After 26 days these mice were treated with either PBS alone or the 4- or 5-amino acid peptide at a dose of 30 mg/kg/day via i.p. injection. The mice were treated for 16 days after which the mice were examined the size of the tumors and the expression of Tsp-1 and p53 in the primary tumors and lungs of the animals. The tumors in animals treated with the 4- and 5-amino acid peptides were, on average, 45% and 40% the size of control animals, respectively (FIG. 6).

For “DWLPK [5-amino acid peptide corresponding to residues 36-40 of saposin A]”, which “prostate tumor size relative to control animals” value is on record?
The value was 40%.
